Patent publication US20250034201A1, “PRODRUGS OF GANAXOLONE” (priority 2022, published 2025)

Columns and labels:
[1] = Rat liver microsomal stability; assay type: in vitro ADME
Experimental: (§1) For several compounds only human liver microsomal stability was tested. […] The microsomal assays were carried out with and without the addition of NADPH at a final concentration of 1 mM. For negative control samples, NADPH reagent was not added. […] Note that compounds undergo only Phase I metabolism in liver microsomes.
CLint=the intrinsic hepatic clearance (uL/min/mg), where CLint is equal to 0.693/(t1/2×Cmp)

in vitro [2] = details: for Observations: stability / GNX production in human plasma / half-life: plasma
Experimental: The plasma stability of exemplary compounds was tested using rat, mice, dog, and human plasma, according to the following protocol. For each test compound, samples at a final concentration of 2 μg/mL were prepared in blank plasma of selected species. All samples were incubated at 37° C. on a 150-RPM orbital shaker, and an aliquot was removed at pre-determined time points (0, 15, 30, 60, and 120 minutes). Samples were precipitated with three volumes of acetonitrile containing propranolol as internal standard, and centrifuged for 10 min at 2000 g before LC/MS/MS analysis of the supernatant solutions.

[3] = Stability in simulated gastric fluid (SGF); assay type: in vitro ADME; details: for half-life: 2 μg/mL, read-out: SGF t1/2
Experimental: (§2) The stability of exemplary compounds in simulated gastric fluid (SGF) and simulated intestinal fluid (SIF) was tested according to the following protocol.

[4] = Stability in simulated intestinal fluid (SIF); assay type: in vitro ADME; details: for half-life: 2 μg/mL, read-out: SIF t1/2
Experimental: as §2

in vitro [5] = assay type: in vitro ADME, human
Experimental: as §1

[6] = rat liver microsomes 0.5 mg/mL, with NADPH, compound 0.5 μM, 37° C., read-out: Rat Liver Microsomal Stability t1/2
[7] = rat liver microsomes 0.5 mg/mL, with NADPH, compound 0.5 μM, read-out: Rat Liver Microsomal Stability CLint (uL/min/mg liver)
[8] = rat liver microsomes, no NADPH, compound 0.5 μM
[9] = SGF with pepsin pH 1.2, 37° C., 60 min
[10] = SIF with pancreatin pH 6.8, 37° C., 60 min
[11] = human liver microsomes 0.5 mg/mL, with NADPH, compound 0.5 μM, 37° C., read-out: Human Liver Microsomal Stability t1/2
[12] = human liver microsomes 0.5 mg/mL, with NADPH, compound 0.5 μM, read-out: Human Liver Microsomal Stability CLint (uL/min/mg liver) (converted)
[13] = human liver microsomes, no NADPH, compound 0.5 μM
[14] = simulated gi fluid, 1 h, pH 1.2
[15] = simulated gi fluid, SGF with pepsin pH 1.2, 37° C.
[16] = simulated gi fluid, SIF with pancreatin pH 6.8, 37° C.

## COc1ccccc1N1CCN(CC(=O)O[C@]2(C)CC[C@@]3(C)[C@@H](CC[C@@H]4[C@@H]3CC[C@]3(C)[C@@H](C(C)=O)CC[C@@H]43)C2)CC1 [Compound 100]
[1]; rat liver microsomes
  Comments: production of GNX (ganaxolone) in rat liver microsomes: GNX not produced in human or rat
[1]; [6]
  half-life: 12.7 min
[1]; [7]
  microsomal CLint: 109 µL/min/mg
[1]; [8]
  Rat Liver Microsomal Stability no NADPH, % remain 1 h: 98.0%
In vitro [2]; human plasma, 2 μg/mL, 37° C.
  Human plasma t90: 27.8 min
In vitro [2]; human
  Observations: stability / GNX production in human plasma: Stable in human, GNX not
  half-life: 3.07 h
In vitro [2]; rat plasma, 2 μg/mL, 37° C.
  Rat plasma t90: 27.9 min
In vitro [2]; rat
  half-life: 3.08 h
[3]; [9]
  SGF (% remain, 60 min): 90.8%
[4]; [10]
  SIF (% remain, 60 min): 93.2%
In vitro [5]; human liver microsomes
  Comments: production of GNX (ganaxolone) in human liver microsomes: GNX not produced in human or rat
In vitro [5]; [11]
  half-life: 11.9 min
In vitro [5]; [12]
  microsomal CLint: 116 µL/min/mg
In vitro [5]; [13]
  Human Liver Microsomal Stability no NADPH, % remain 1 h: 100.0%

## CC(=O)[C@H]1CC[C@H]2[C@@H]3CC[C@H]4C[C@](C)(OC(=O)CN5CCOCC5)CC[C@]4(C)[C@H]3CC[C@]12C [Compound 101]
[1]; rat liver microsomes
  Comments: production of GNX (ganaxolone) in rat liver microsomes: GNX not produced in human or rat
[1]; rat, microsomes
  half-life: 6.8 min
  microsomal CLint: 204 µL/min/mg
  Rat Liver Microsomal Stability no NADPH, % remain 1 h: 100.0%
In vitro [2]; human
  Human plasma t90: 243.0 min
  Observations: stability / GNX production in human plasma: Stable in human
  half-life: 26.9 h
In vitro [2]; rat
  Rat plasma t90: 342.0 min
  half-life: 37.8 h
[3]; [14]
  SGF (% remain, 60 min): 90.5%
[4]; simulated gi fluid, 1 h, pH 6.8
  SIF (% remain, 60 min): 90.2%
In vitro [5]; human liver microsomes
  Comments: production of GNX (ganaxolone) in human liver microsomes: GNX not produced in human or rat
In vitro [5]; human, microsomes
  half-life: 10.2 min
  microsomal CLint: 137 µL/min/mg
  Human Liver Microsomal Stability no NADPH, % remain 1 h: 99.0%

## CC(=O)[C@H]1CC[C@H]2[C@@H]3CC[C@H]4C[C@](C)(OC(=O)CN5CCN(C)CC5)CC[C@]4(C)[C@H]3CC[C@]12C [Compound 102]
[3]; [9]
  SGF (% remain, 60 min): 56.3%
[4]; [10]
  SIF (% remain, 60 min): 74.7%

## CCOC(=O)CNCC(=O)O[C@]1(C)CC[C@@]2(C)[C@@H](CC[C@@H]3[C@@H]2CC[C@]2(C)[C@@H](C(C)=O)CC[C@@H]32)C1 [Compound 103]
[3]; [9]
  SGF (% remain, 60 min): 98.4%
[4]; [10]
  SIF (% remain, 60 min): 75.9%

## COCCN(C)CC(=O)O[C@]1(C)CC[C@@]2(C)[C@@H](CC[C@@H]3[C@@H]2CC[C@]2(C)[C@@H](C(C)=O)CC[C@@H]32)C1 [Compound 104]
[1]; rat liver microsomes
  Comments: production of GNX (ganaxolone) in rat liver microsomes: GNX not produced in human or rat
[1]; [6]
  half-life: 7.41 min
[1]; [7]
  microsomal CLint: 187 µL/min/mg
[1]; [8]
  Rat Liver Microsomal Stability no NADPH, % remain 1 h: 99%
In vitro [5]; human liver microsomes
  Comments: production of GNX (ganaxolone) in human liver microsomes: GNX not produced in human or rat
In vitro [5]; [11]
  half-life: 12 min
In vitro [5]; [12]
  microsomal CLint: 116 µL/min/mg
In vitro [5]; [13]
  Human Liver Microsomal Stability no NADPH, % remain 1 h: 98%

## COC(=O)[C@@H](C)NCC(=O)O[C@]1(C)CC[C@@]2(C)[C@@H](CC[C@@H]3[C@@H]2CC[C@]2(C)[C@@H](C(C)=O)CC[C@@H]32)C1 [Compound 106]
[3]; [14]
  SGF (% remain, 60 min): 2.80%
In vitro [5]; human liver microsomes
  Comments: production of GNX (ganaxolone) in human liver microsomes: GNX not produced in human
In vitro [5]; human, microsomes
  half-life: 4.57 min
  microsomal CLint: 303 µL/min/mg
  Human Liver Microsomal Stability no NADPH, % remain 1 h: 3.05%

## CC(=O)[C@H]1CC[C@H]2[C@@H]3CC[C@H]4C[C@](C)(OC(=O)CNCCO)CC[C@]4(C)[C@H]3CC[C@]12C [Compound 107]
[1]; rat liver microsomes
  Comments: production of GNX (ganaxolone) in rat liver microsomes: GNX not produced in human or rat
[1]; [6]
  half-life: 21.9 min
[1]; [7]
  microsomal CLint: 63 µL/min/mg
[1]; [8]
  Rat Liver Microsomal Stability no NADPH, % remain 1 h: 98%
In vitro [5]; human liver microsomes
  Comments: production of GNX (ganaxolone) in human liver microsomes: GNX not produced in human or rat
In vitro [5]; [12]
  microsomal CLint: 21.4 µL/min/mg
In vitro [5]; [13]
  Human Liver Microsomal Stability no NADPH, % remain 1 h: 99%
In vitro [5]; human, microsomes
  half-life: 64.7 min

## CC(=O)[C@H]1CC[C@H]2[C@@H]3CC[C@H]4C[C@](C)(OC(=O)CNCC(=O)OC(C)(C)C)CC[C@]4(C)[C@H]3CC[C@]12C [Compound 109]
[3]; [9]
  SGF (% remain, 60 min): 96.2%
[4]; [10]
  SIF (% remain, 60 min): 92.9%

## CC(=O)[C@H]1CC[C@H]2[C@@H]3CC[C@H]4C[C@](C)(OC(=O)COC(=O)CN5CCN(C)CC5)CC[C@]4(C)[C@H]3CC[C@]12C [Compound 208]
In vitro [2]; human plasma, 2 μg/mL, 37° C.
  Human plasma t90: 26.6 min
In vitro [2]; human
  Observations: stability / GNX production in human plasma: No GNX produced
  half-life: 2.95 h
In vitro [5]; human liver microsomes
  Comments: production of GNX (ganaxolone) in human liver microsomes: In human GNX not produced
In vitro [5]; [11]
  half-life: 37 min
In vitro [5]; [12]
  microsomal CLint: 37.4 µL/min/mg
In vitro [5]; [13]
  Human Liver Microsomal Stability no NADPH, % remain 1 h: 72%

## CC(=O)[C@H]1CC[C@H]2[C@@H]3CC[C@H]4C[C@](C)(OC(=O)COC(=O)OCCN(C)C)CC[C@]4(C)[C@H]3CC[C@]12C [Compound 220]
In vitro [2]; human plasma, 2 μg/mL, 37° C.
  Human plasma t90: 3.18 min
In vitro [2]; human
  Observations: stability / GNX production in human plasma: In human no GNX
  half-life: 0.352 h
In vitro [5]; [11]
  half-life: 11.8 min
In vitro [5]; [12]
  microsomal CLint: 117 µL/min/mg
In vitro [5]; [13]
  Human Liver Microsomal Stability no NADPH, % remain 1 h: 4%

## CC(=O)[C@H]1CC[C@H]2[C@@H]3CC[C@H]4C[C@](C)(OC(=O)CC[C@H](N)C(=O)O)CC[C@]4(C)[C@H]3CC[C@]12C [Compound 416]
In vitro [5]; human liver microsomes
  Comments: production of GNX (ganaxolone) in human liver microsomes: In human no GNX produced
In vitro [5]; [11]
  half-life: 273 min
In vitro [5]; [12]
  microsomal CLint: 5.08 µL/min/mg
In vitro [5]; [13]
  Human Liver Microsomal Stability no NADPH, % remain 1 h: 99%

## CC(=O)[C@H]1CC[C@H]2[C@@H]3CC[C@H]4C[C@](C)(OC(=O)CCCN)CC[C@]4(C)[C@H]3CC[C@]12C [Compound 417]
In vitro [5]; human liver microsomes
  Comments: production of GNX (ganaxolone) in human liver microsomes: In human no GNX produced
In vitro [5]; [11]
  half-life: 494 min
In vitro [5]; [12]
  microsomal CLint: 2.81 µL/min/mg
In vitro [5]; [13]
  Human Liver Microsomal Stability no NADPH, % remain 1 h: 99%

## CC(=O)[C@H]1CC[C@H]2[C@@H]3CC[C@H]4C[C@](C)(OC(=O)CCCCN)CC[C@]4(C)[C@H]3CC[C@]12C [Compound 418]
In vitro [5]; human liver microsomes
  Comments: production of GNX (ganaxolone) in human liver microsomes: In human no GNX produced
In vitro [5]; [11]
  half-life: 451 min
In vitro [5]; [12]
  microsomal CLint: 3.08 µL/min/mg
In vitro [5]; [13]
  Human Liver Microsomal Stability no NADPH, % remain 1 h: 99%

## CC(=O)[C@H]1CC[C@H]2[C@@H]3CC[C@H]4C[C@](C)(OC(=O)OCCN(C)C)CC[C@]4(C)[C@H]3CC[C@]12C [Compound 419]
In vitro [5]; human liver microsomes
  Comments: production of GNX (ganaxolone) in human liver microsomes: In human small amount of GNX produced
In vitro [5]; [11]
  half-life: 39.5 min
In vitro [5]; [12]
  microsomal CLint: 35.1 µL/min/mg
In vitro [5]; [13]
  Human Liver Microsomal Stability no NADPH, % remain 1 h: 88%

## CC(=O)[C@H]1CC[C@H]2[C@@H]3CC[C@H]4C[C@](C)(OC(=O)CC(C)(C)C(=O)O)CC[C@]4(C)[C@H]3CC[C@]12C [Compound 420]
In vitro [5]; human liver microsomes
  Comments: production of GNX (ganaxolone) in human liver microsomes: In human no GNX produced
In vitro [5]; [11]
  half-life: 445 min
In vitro [5]; [12]
  microsomal CLint: 3.11 µL/min/mg
In vitro [5]; [13]
  Human Liver Microsomal Stability no NADPH, % remain 1 h: 97.4%

## COCCOCCOCC(=O)OCO[C@]1(C)CC[C@@]2(C)[C@@H](CC[C@@H]3[C@@H]2CC[C@]2(C)[C@@H](C(C)=O)CC[C@@H]32)C1 [Compound 503]
In vitro [2]; human
  half-life: < 0.5 h
[3]; [9]
  SGF (% remain, 60 min): 68%
[3]; [15]
  half-life: 118 min
[4]; [10]
  SIF (% remain, 60 min): ~90%
[4]; [16]
  half-life: ~30 min
In vitro [5]; [11]
  half-life: 5.65 min
In vitro [5]; [12]
  microsomal CLint: 245 µL/min/mg
In vitro [5]; [13]
  Human Liver Microsomal Stability no NADPH, % remain 1 h: 11.6%

## CC(=O)[C@H]1CC[C@H]2[C@@H]3CC[C@H]4C[C@](C)(OCOC(=O)CN5CCOCC5)CC[C@]4(C)[C@H]3CC[C@]12C [Compound 504]
In vitro [2]; human plasma, 2 μg/mL, 37° C.
  Human plasma t90: 2.54 min
In vitro [2]; human
  half-life: 0.285 h
[3]; [9]
  SGF (% remain, 60 min): 0.4%
[3]; [15]
  half-life: 7.41 min
[4]; [10]
  SIF (% remain, 60 min): 49.0%
[4]; [16]
  half-life: 88.4 min
In vitro [5]; [11]
  half-life: 2.5 min
In vitro [5]; [12]
  microsomal CLint: 554 µL/min/mg
In vitro [5]; [13]
  Human Liver Microsomal Stability no NADPH, % remain 1 h: 0.8%
